# Experimental data as given in patent US9061984B2 (University of Louisville Research Foundation, Inc., priority 2008, dated 2015).
# Where two headings read alike, the source gives them in different places.
# Key:
# 3T3 cells = assay: Cell growth inhibition bioassay (sulforhodamine B); type: cell-based, mouse; conditions: for GI50: Mus musculus, NIH3T3, read-out: GI50 in indicated cell line: 3T3
# Procedure, shortened: (§1)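 Cells were exposed to compound alongside matched solvent controls, then stained with sulforhodamine B. Percent growth inhibition was calculated from dye absorbance against the control.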
# DU145 cells = assay: Cell growth inhibition bioassay (sulforhodamine B); type: cell-based, human; conditions: 48 h, SRB; for GI50: Homo sapiens, DU-145, read-out: GI50 in indicated cell line: DU145
# Procedure, shortened: as §1
# H460 cells = assay: Cell growth inhibition bioassay (sulforhodamine B); type: cell-based, human; conditions: 48 h, SRB; for GI50: Homo sapiens, NCI-H460, read-out: GI50 in indicated cell line: H460
# Procedure, shortened: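 Growth inhibition was measured colorimetrically with sulforhodamine B staining and expressed as percent inhibition relative to solvent-treated controls. Cell lines were human: MCF-7 breast adenocarcinoma, DU145 and PC3 prostate carcinoma/adenocarcinoma, H460 large cell lung cancer.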
# HT-29 cells = assay: Cell growth inhibition bioassay (sulforhodamine B); type: cell-based, human; conditions: 48 h, SRB; for GI50: Homo sapiens, HT-29, read-out: GI50 in indicated cell line: HT-29
# Procedure, shortened: as §1
# K562 cells = assay: Cell growth inhibition bioassay (sulforhodamine B); type: cell-based, human; conditions: 48 h, SRB; for GI50: Homo sapiens, K562, read-out: GI50 in indicated cell line: K562
# Procedure, shortened: as §1
# M-14 cells = assay: Cell growth inhibition bioassay (sulforhodamine B); type: cell-based, human; conditions: 48 h, SRB; for GI50: Homo sapiens, M14, read-out: GI50 in indicated cell line: M-14
# Procedure, shortened: as §1
# MCF-7 cells = assay: Cell growth inhibition bioassay (sulforhodamine B); type: cell-based, human; conditions: 48 h, SRB; for GI50: Homo sapiens, MCF7, read-out: GI50 in indicated cell line: MCF-7
# Procedure, shortened: as §1
# VERO cells [1] = assay: Cell growth inhibition bioassay (sulforhodamine B); type: cell-based, African Green Monkey; conditions: 48 h, SRB; for GI50: Chlorocebus sabaeus, Vero, read-out: GI50 in indicated cell line: VERO
# Procedure, shortened: as §1
# [2] = target: Trypanosoma cruzi (Tulahuen C4); assay: In vitro anti-T. cruzi activity (β-galactosidase CPRG colorimetric assay in VERO monolayer); type: cell-based; conditions: for inhibition at 10 µg/mL / IC50: Trypanosoma cruzi, TULAHUEN, Vero; for inhibition at 10 µg/mL: 120 h, 10 μg/mL of each compound, 120 hours, read-out: T. cruzi Inhib. (%)
# M. tuberculosis H37Rv [3] = assay: Conventional aerobic (MABA) culture assay, luminescence MIC; type: cell-based, Mycobacterium tuberculosis; conditions: aerobic, 7 days, H37Rv; for MIC: Mycobacterium tuberculosis, 168 h
# peritoneal macrophages = assay: Toxicity to peritoneal macrophages (Trypan Blue count); type: cell-based, BALB/C mouse
# [4] = test system: axenic amastigotes of L. amazonensis (strain MHOM/BR/76/LTB-012); conditions: Table 8b; for IC50: read-out: L. amazonensis IC50
# VERO cell = assay: Cytotoxicity VERO cell (Table 6); conditions: Table 6
# VERO cells [5] = assay: Cytotoxicity on VERO cells (MTT), anti-T. cruzi study; conditions: Lab B
# M. tuberculosis H37Rv [6] = assay: Anti-tuberculosis bioassay (tetrazolium microplate MIC); type: cell-based; conditions: Mycobacterium tuberculosis, read-out: Mycobacterium MIC H37Rv, Table 5
# M. tuberculosis MDR = assay: as above; type: cell-based; conditions: Mycobacterium tuberculosis, read-out: Mycobacterium MIC MDR
# [7] = Toxicity to peritoneal macrophages (Trypan Blue count); type: cell-based, BALB/C mouse; conditions: BALB/C, mouse
# [8] = test system: axenic amastigotes of L. amazonensis (strain MHOM/BR/76/LTB-012); assay: microbe, parasite or virus in culture; conditions: Leishmania amazonensis
# [9] = Cytotoxicity on VERO cells (MTT), anti-T. cruzi study; conditions: African green monkey, VERO cells, IC50 - VERO Cytotoxicity, Table 2
# [10] = read-out: IC50 Cytotoxicity Against Amastigotes
Compound,GI50 in indicated cell line: DU145 (DU145 cells),GI50 in indicated cell line: H460 (H460 cells),GI50 in indicated cell line: HT-29 (HT-29 cells),GI50 in indicated cell line: K562 (K562 cells),GI50 in indicated cell line: M-14 (M-14 cells),GI50 in indicated cell line: MCF-7 (MCF-7 cells),GI50 in indicated cell line: VERO (VERO cells [1]),T. cruzi IC50 Lab A ([2]; Lab A),T. cruzi IC50 Lab B [2],MIC MABA (M. tuberculosis H37Rv [3]),IC50 [4],Cytotoxicity VERO cell (VERO cell),Cytotoxicity VERO Lab B (VERO cells [5]),"GI50 in indicated cell line: 3T3 (3T3 cells; 48 h, SRB)",IC50 (peritoneal macrophages),"GI50 (3T3 cells; 48 h, SRB)",GI50 (DU145 cells),GI50 (H460 cells),GI50 (HT-29 cells),GI50 (K562 cells),other results
NNc1ncnc2sc3c(c12)CCCC3 [PC],3.1 µg/mL,2.1 µg/mL,4.6 µg/mL,2.4 µg/mL,5.4 µg/mL,2.0 µg/mL,2.5 µg/mL,4.1 µg/mL,4.7 µg/mL,82.5 µg/mL,12 µM,26.9 µg/mL,9.0,,,,,,,,"GI50 in indicated cell line: 3T3 (3T3 cells): <0.98 µg/mL; IC50 (peritoneal macrophages; Table 8b, read-out: Cytotoxicity Macrophages IC50): 7.4 µM"
CC(C)(C)C=NNc1ncnc2sc3c(c12)CCCC3 [II-36],7.2 µg/mL,7.1 µg/mL,9.5 µg/mL,7.9 µg/mL,9.4 µg/mL,7.5 µg/mL,9.7 µg/mL,5.3 µg/mL,,86.3 µg/mL,32.5 µM,29.6 µg/mL,,2.1 µg/mL,50.7 µM,,,,,,
C(=Cc1ccccc1)C=NNc1ncnc2sc3c(c12)CCCC3 [II-04],1.8 µg/mL,0.7 µg/mL,2.7 µg/mL,0.5 µg/mL,1.6 µg/mL,0.7 µg/mL,0.6 µg/mL,0.4 µg/mL,0.5 µg/mL,11.7 µg/mL,5.5 µM,1.2 µg/mL,7.0,1.5 µg/mL,0.6 µM,,,,,,
COc1cc(/C=N\Nc2ncnc3sc4c(c23)CCCC4)cc(OC)c1O [II-16],,,,,,,,,,,,,,,,10.5 µg/mL,10.5 µg/mL,> 62.5 µg/mL,> 62.5 µg/mL,> 62.5 µg/mL,"GI50 (M-14 cells): > 62.5 µg/mL; GI50 (MCF-7 cells): > 62.5 µg/mL; GI50 (VERO cells [1]): > 62.5 µg/mL; inhibition at 10 µg/mL [2]: 58.6%; IC50 ([2]; Lab A, read-out: T. cruzi IC50 Lab A): 4.9 µg/mL; IC50 ([2]; Table 2, read-out: IC50 - T. cruzi): 8.74 µg/mL; MIC (M. tuberculosis H37Rv [6]): > 25 µg/mL; MIC (M. tuberculosis MDR): > 25 µg/mL; MIC (M. tuberculosis H37Rv [3]): > 100 µg/mL; IC50 at 48 h ([7]; Cytotoxicity Macrophages IC50): 46.4 µM; Selectivity Index [4]: 3.0; IC50 [8, 10]: 21.9 µM; IC50 ([8]; read-out: L. amazonensis IC50): 15.7 µM; IC50 [9]: 124 µg/mL"
O=[N+]([O-])c1ccc(/C=N\Nc2ncnc3sc4c(c23)CCCC4)cc1 [II-22],,,,,,,,,,,,,,,,> 62.5 µg/mL,> 62.5 µg/mL,> 62.5 µg/mL,> 62.5 µg/mL,> 62.5 µg/mL,"GI50 (M-14 cells): > 62.5 µg/mL; GI50 (MCF-7 cells): > 62.5 µg/mL; GI50 (VERO cells [1]): > 62.5 µg/mL; inhibition at 10 µg/mL [2]: 11.6%; MIC (M. tuberculosis H37Rv [6]): > 25 µg/mL; MIC (M. tuberculosis MDR): > 25 µg/mL; MIC (M. tuberculosis H37Rv [3]): > 100 µg/mL; IC50 at 48 h ([7]; Cytotoxicity Macrophages IC50): 70.4 µM; IC50 at 48 h ([7]; IC50 Cytotoxicity Against Macrophages): > 10 µM; Selectivity Index [4]: 5.2; IC50 [8, 10]: 33.8 µM; IC50 ([8]; read-out: L. amazonensis IC50): 13.6 µM"
